Key:
Assay type in all cases: cell-based
[1] = test system: Escherichia coli nfsB (NfsB) or human cytochrome P450 reductase (CYPOR); assay: Multiplexed reporter detection with compounds 11 and 13 in MDA-231 WT, NfsB and CYPOR cells (fluorescence microscopy); details: fluorescent microscope images, MDA-231 WT/NfsB/CYPOR
Excerpt: Compounds 11 and 13 (as representative nitro-substituted aromatic compounds of the present invention) were utilized to exemplify the ability to detect individual cell populations. […] When the data were collated it was evident that the fluorescent output of each cell population could be identified with minimal interference from the other reductases-generated fluorescent molecules. […] To establish the single cell specificity of compounds 11 and 13 for detection of activities in a mixed (co-cultured) cell population, cells were examined by fluorescent microscopy following concurrent exposure to compounds 11 and 13. MDA-231 wild-type cells or cells expressing Escherichia coli nfsB and human cytochrome P450 reductase were mixed 1:1:1, seeded onto glass coverslips (15,000 cells/well in 0.1 mL αMEM+10% FCS+P/S) and allowed to attach overnight. Compound 11 and 13 were diluted into αMEM (from DMSO stock solutions) and 0.1 mL was added to achieve a final concentration of 10 μM and 100 μM respectively. Samples were incubated at 37° C. for 45 minutes, washed three times in PBS and images were acquired on a Nikon TE-2000 inverted fluorescence microscope. […] This illustrates that multiple independent outputs can be recorded from a single sample providing appropriate excitation and emission wavelengths are utilized. […]

[2] = target: T1, E. coli nitroreductase (nfsB) (Escherichia coli, UniProt P38489); assay: Entrapment of fluorescent products within nitroreductase expressing HCT116 cells; details: washed; for cellular retention of fluorescence in nitroreductase expressing but not parental HCT116 cells: 10 μM for 1.5 hr, 6 hours post-exposure
T1 construct: expressed in transfected cells; host or cells: MDA231 (MDA-231) human breast cancer cell line, clonal derivative MDA231 NTR
Protocol: The human colorectal cancer cell line (HCT116^WT) and a clonal derivative (HCT116^NTR) engineered to express the reporter gene E. coli nitroreductase (nfsB) under the control of a constitutive promoter were seeded onto glass coverslips at an equal density (50:50). Cells were equilibrated to 37° C., 5% CO2, and compound 1 and 13 was added to a final concentration of 100 μM for 1 hr. Cells were washed free of compound after 1 hour and fluorescence was monitored as a function of time (FIG. 8).
In further screening (FIG. 9), the human colorectal cancer cell line (HCT116^WT) and a clonal derivative (HCT116^NTR) engineered to express the reporter gene E. coli nitroreductase (nfsB) under the control of a constitutive promoter were seeded separately into a 96-well glass plate. Cells were equilibrated to 37° C., 5% CO2, and compounds were added to a final concentration of 10 μM for 1.5 hr. Cells were washed free of compound and fluorescence was monitored 6 hours post-exposure. […] The image has been rendered monochromatic for the purposes of publication quality.

[3] = target: T2, Escherichia coli nfsB (NfsB) (Escherichia coli, UniProt P38489); assay: Multiplexed reporter detection with compounds 4 and 16 in MDA-231 cells expressing nfsB; details: nfsB and CYPOR cells mixed 1:1, 10 μM, 45 minutes, microscopy
T2 construct: expressed in transfected cells; host or cells: MDA231 (MDA-231) human breast cancer cell line, clonal derivative MDA231 NTR
Protocol: (§1) Compounds 4 and 16 (as representative nitro-substituted aromatic compounds of the present invention) were utilized to exemplify the ability to detect individual cell populations. […] 30,000 cells were seeded into a plastic 96-well plate in a volume of 0.1 mL. After 2 h attachment samples were incubated with either 200 μM 16 or 100 μM 4 by dilution of DMSO stock solutions into culture medium and addition of 0.1 mL directly into wells. Plates were incubated for 4 h before being read on a fluorescent platereader at Ex/Em 355/460 and 485/535. Values represent the fluorescence in the presence of cells—blank (fluorescence in the absence of cells). When the data were collated it was evident that the fluorescent output of each cell population could be identified with minimal interference from the other reductases-generated fluorescent molecules. […] To establish the single cell specificity of compounds 4 and 16 for detection of activities in a mixed (co-cultured) cell population, cells were examined by fluorescent microscopy following concurrent exposure to compounds 4 and 16. […] Samples were incubated at 37° C. for 45 minutes, washed three times in PBS and images were acquired on a Nikon TE-2000 inverted fluorescence microscope. […]

[4] = target: T3, human cytochrome P450 reductase (CYPOR) (Homo sapiens, UniProt P16435); assay: Multiplexed reporter detection with compounds 4 and 16 in MDA-231 cells expressing CYPOR
T3 construct: expressed in transfected cells; host or cells: MDA231 (MDA-231) human breast cancer cell line, clonal derivative MDA231 P450R
T3 sequence (P16435 1-677): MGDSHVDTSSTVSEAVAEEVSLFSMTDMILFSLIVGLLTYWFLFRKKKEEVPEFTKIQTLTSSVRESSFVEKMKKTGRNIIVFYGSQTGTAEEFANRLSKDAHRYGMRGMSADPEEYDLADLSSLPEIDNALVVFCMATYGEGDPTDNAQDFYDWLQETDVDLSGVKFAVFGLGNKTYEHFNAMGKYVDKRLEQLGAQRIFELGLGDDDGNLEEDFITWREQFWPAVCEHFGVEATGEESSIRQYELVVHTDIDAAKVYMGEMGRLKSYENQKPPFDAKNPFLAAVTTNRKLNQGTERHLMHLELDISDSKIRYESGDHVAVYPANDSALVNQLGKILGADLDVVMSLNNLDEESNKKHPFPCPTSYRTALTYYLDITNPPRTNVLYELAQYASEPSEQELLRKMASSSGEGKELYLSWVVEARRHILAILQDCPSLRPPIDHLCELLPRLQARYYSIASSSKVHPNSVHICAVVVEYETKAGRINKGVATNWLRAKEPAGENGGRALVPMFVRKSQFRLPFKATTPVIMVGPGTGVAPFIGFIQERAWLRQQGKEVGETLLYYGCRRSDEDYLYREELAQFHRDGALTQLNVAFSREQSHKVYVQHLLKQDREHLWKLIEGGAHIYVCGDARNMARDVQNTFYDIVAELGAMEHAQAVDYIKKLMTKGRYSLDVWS
Protocol: as §1

T1 sequence (P38489 whole entry): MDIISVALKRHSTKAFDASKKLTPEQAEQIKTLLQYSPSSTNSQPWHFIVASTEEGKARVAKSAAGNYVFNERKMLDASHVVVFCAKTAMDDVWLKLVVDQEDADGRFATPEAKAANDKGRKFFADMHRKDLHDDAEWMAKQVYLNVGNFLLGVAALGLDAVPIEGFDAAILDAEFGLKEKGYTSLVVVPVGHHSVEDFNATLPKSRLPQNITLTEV
T2 sequence (P38489 whole entry): as above

Q: How did the “fluorescent output at Ex/Em 485/535 detecting nfsB and CYPOR enzyme activities” value [1] turn out when `CN(C)CCCCN1C(=O)c2cccc3cc([N+](=O)[O-])cc(c23)C1=O` [Compound 11, 2-[4-(Dimethylamino)butyl]-5-nitro-1H-benzo[de]isoquinoline-1,3(2H)-dione] was run?
A: The value was “gave fluorescent output”.

Q: For `COC(=O)Cn1ccc(=O)c2cc([N+](=O)[O-])ccc21` [Compound 13, Methyl (6-nitro-4-oxo-1(4H)-quinolinyl)acetate], which “cellular retention of fluorescence in nitroreductase expressing but not parental HCT116 cells” value [2] is on record?
A: The value was “possessing cellular retention properties”.

Q: And the “retention of fluorescence in cells after wash” value ([2]; HCT116 WT:HCT116 NTR 50:50 co-culture, 100 μM for 1 hr, by 4 hours)?
A: Its value is “still retained”.

Q: What about the “fluorescent output at Ex/Em 355/460 detecting nfsB and CYPOR enzyme activities” value [1] of the same molecule?
A: The value was “gave fluorescent output”.

Q: How did the “cellular retention of fluorescence in nitroreductase expressing but not parental HCT116 cells” value [2] turn out when `CN(C)CCCOc1ccnc2cc([N+](=O)[O-])ccc12` [Compound 14, N,N-dimethyl-3-[(7-nitro-4-quinolinyl)oxy]-1-propanamine] was run?
A: Its value is “possessing cellular retention properties”.

Q: And the “fluorescent emission colour on co-registration image (FITC filter set)” value [3]?
A: Its value is “green”.

Q: For `CN(C)CCCNc1ncnc2cccc([N+](=O)[O-])c12` [Compound 16, N^1,N^1-dimethyl-N^3-(5-nitro-4-quinazolinyl)-1,3-propanediamine], which “fluorescent output at Ex/Em 355/460 detecting human CYPOR activity” value ([4]; 200 μM, 4 h, platereader, MDA-231 WT/NfsB/CYPOR) is on record?
A: The value was “gave fluorescent output”.

Q: And the “fluorescent emission colour on co-registration image (DAPI filter set)” value ([4]; nfsB and CYPOR cells mixed 1:1, 300 μM, 45 minutes, microscopy)?
A: The value was “blue”.
